Source: article PMC8470988, “Glucosylation of (±)-Menthol by Uridine-Diphosphate-Sugar Dependent Glucosyltransferases from Plants” (Molecules, 2021)

Molecular target: T1, UGT93Y1 (Camellia sinensis, UniProt A0A4S4F2U3)
T1 construct: gene TEA_008645; UGT 467 aa, fusion about 80 kDa; His29, Asp134, PSPG box Trp342-Gln385, TSS 413-415
Test: UDP Glo glycosyltransferase assay
Assay type: biochemical
Conditions: UDP-glucose as donor; 30 °C; 0-1000 µM menthol; kinetic fit with substrate inhibition, two-site sequential model with identical dissociation constants

T1 sequence (A0A4S4F2U3 entry or part of it): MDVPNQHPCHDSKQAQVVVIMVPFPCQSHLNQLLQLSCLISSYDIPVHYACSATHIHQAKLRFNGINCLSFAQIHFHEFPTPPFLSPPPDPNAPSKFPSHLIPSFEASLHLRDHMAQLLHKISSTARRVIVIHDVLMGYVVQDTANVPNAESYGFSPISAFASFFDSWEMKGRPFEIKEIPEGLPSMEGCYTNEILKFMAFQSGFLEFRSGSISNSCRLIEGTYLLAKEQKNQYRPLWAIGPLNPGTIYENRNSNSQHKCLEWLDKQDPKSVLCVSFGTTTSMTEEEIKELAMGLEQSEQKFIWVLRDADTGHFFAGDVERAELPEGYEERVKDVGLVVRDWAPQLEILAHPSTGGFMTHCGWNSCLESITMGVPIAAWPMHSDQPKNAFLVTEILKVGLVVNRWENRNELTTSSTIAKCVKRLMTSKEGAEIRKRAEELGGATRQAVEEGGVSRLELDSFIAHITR

SMILES: CC1CCC(C(C)C)C(O)C1 (racemic) [(±)-menthol]
- Kd: 453 µM
